Results from the NIST ThermoML archive (doi:10.1021/acs.jced.6b00496).

Assay: xn = mol fraction of the nth substance listed
Details: 81.5 kPa, Liquid; for mass density: Vibrating tube method; for speed of sound: Sing-around technique in a fixed-path interferometer

CCn1cc[n+](C)c1.F[B-](F)(F)F [1-ethyl-3-methylimidazolium tetrafluoroborate] + CC(=O)N(C)C
Details | mass density [kg/m3] | speed of sound [m/s]
318.15 K, x1 = 0.131 | 998.322 | –
318.15 K, x1 = 0.198 | 1033.75 | –
318.15 K, x1 = 0.2976 | 1078.11 | –
318.15 K, x1 = 0.3868 | 1113.98 | –
318.15 K, x1 = 0.4734 | 1144.47 | –
318.15 K, x1 = 0.563 | 1171.44 | –
318.15 K, x1 = 0.7089 | 1210.93 | –
318.15 K, x1 = 0.7973 | 1225.46 | –
318.15 K, x1 = 0.8821 | 1238.13 | –
318.15 K, x1 = 1 | 1267.03 | –
323.15 K, x1 = 0.131 | 994.081 | 1413.7
323.15 K, x1 = 0.198 | 1029.41 | 1443.1
323.15 K, x1 = 0.2976 | 1074.03 | 1471.6
323.15 K, x1 = 0.3868 | 1109.98 | 1491.9
323.15 K, x1 = 0.4734 | 1140.55 | 1509
323.15 K, x1 = 0.563 | 1167.54 | 1525.4
323.15 K, x1 = 0.7089 | 1207.14 | 1543.9
323.15 K, x1 = 0.7973 | 1221.69 | 1551.4
323.15 K, x1 = 0.8821 | 1234.36 | 1557
323.15 K, x1 = 1 | 1263.3 | 1570.6
328.15 K, x1 = 0.131 | 990.013 | 1396.4
328.15 K, x1 = 0.198 | 1025.2 | 1426.6
328.15 K, x1 = 0.2976 | 1069.95 | 1456.1
328.15 K, x1 = 0.3868 | 1105.98 | 1477.4
328.15 K, x1 = 0.4734 | 1136.62 | 1495.2
328.15 K, x1 = 0.563 | 1163.66 | 1512.2
328.15 K, x1 = 0.7089 | 1203.38 | 1531.6
328.15 K, x1 = 0.7973 | 1217.94 | 1539.4
328.15 K, x1 = 0.8821 | 1230.61 | 1545.3
328.15 K, x1 = 1 | 1259.58 | 1559.4
333.15 K, x1 = 0.131 | 986.018 | 1379
333.15 K, x1 = 0.198 | 1021.01 | 1410.2
333.15 K, x1 = 0.2976 | 1065.88 | 1440.9
333.15 K, x1 = 0.3868 | 1101.99 | 1462.9
333.15 K, x1 = 0.4734 | 1132.72 | 1481.5
333.15 K, x1 = 0.563 | 1159.8 | 1499.1
333.15 K, x1 = 0.7089 | 1199.69 | 1519.4
333.15 K, x1 = 0.7973 | 1214.19 | 1527.4
333.15 K, x1 = 0.8821 | 1226.87 | 1533.6
333.15 K, x1 = 1 | 1255.88 | 1548.2
338.15 K, x1 = 0.131 | 982.059 | 1361.9
338.15 K, x1 = 0.198 | 1016.81 | 1393.9
338.15 K, x1 = 0.2976 | 1061.83 | 1425.7
338.15 K, x1 = 0.3868 | 1098.01 | 1448.6
338.15 K, x1 = 0.4734 | 1128.83 | 1467.9
338.15 K, x1 = 0.563 | 1155.95 | 1486.1
338.15 K, x1 = 0.7089 | 1195.92 | 1507.3
338.15 K, x1 = 0.7973 | 1210.46 | 1515.6
338.15 K, x1 = 0.8821 | 1223.16 | 1528.1
338.15 K, x1 = 1 | 1252.2 | 1537.2
343.15 K, x1 = 0.131 | 978.076 | 1344.8
343.15 K, x1 = 0.198 | 1012.61 | 1377.7
343.15 K, x1 = 0.2976 | 1057.78 | 1410.6
343.15 K, x1 = 0.3868 | 1094.04 | 1434.4
343.15 K, x1 = 0.4734 | 1124.94 | 1454.4
343.15 K, x1 = 0.563 | 1152.06 | 1473
343.15 K, x1 = 0.7089 | 1192.22 | 1495.4
343.15 K, x1 = 0.7973 | 1206.75 | 1503.8
343.15 K, x1 = 0.8821 | 1219.46 | 1510.6
343.15 K, x1 = 1 | 1248.54 | 1526.2
